For this assay, the target named is T1, human GR (Homo sapiens, UniProt P04150).
T1 construct: naturally expresses the human GR; endogenous in cells
T1 sequence (P04150 1-777): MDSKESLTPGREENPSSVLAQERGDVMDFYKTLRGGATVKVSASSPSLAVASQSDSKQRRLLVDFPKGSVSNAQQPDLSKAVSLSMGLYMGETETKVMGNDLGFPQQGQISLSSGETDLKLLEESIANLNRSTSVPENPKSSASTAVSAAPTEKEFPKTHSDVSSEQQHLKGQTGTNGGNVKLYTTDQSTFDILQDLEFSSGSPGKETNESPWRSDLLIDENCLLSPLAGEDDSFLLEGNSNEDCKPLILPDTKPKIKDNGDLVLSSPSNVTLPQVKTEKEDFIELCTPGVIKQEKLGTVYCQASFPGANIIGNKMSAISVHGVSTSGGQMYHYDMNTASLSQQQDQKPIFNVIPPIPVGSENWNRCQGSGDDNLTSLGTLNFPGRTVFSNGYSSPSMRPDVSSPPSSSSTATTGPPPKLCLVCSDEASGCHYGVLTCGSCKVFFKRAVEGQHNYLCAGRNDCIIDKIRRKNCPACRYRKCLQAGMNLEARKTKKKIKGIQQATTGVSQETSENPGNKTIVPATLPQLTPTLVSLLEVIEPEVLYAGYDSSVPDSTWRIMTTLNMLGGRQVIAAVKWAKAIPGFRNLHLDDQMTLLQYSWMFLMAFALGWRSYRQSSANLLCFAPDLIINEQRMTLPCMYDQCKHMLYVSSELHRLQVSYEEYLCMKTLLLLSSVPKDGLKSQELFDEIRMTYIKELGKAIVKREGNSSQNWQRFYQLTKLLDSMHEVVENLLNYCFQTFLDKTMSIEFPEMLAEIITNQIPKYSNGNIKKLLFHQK
The experiment in a line: Trans-activation modulation of glucocorticoid receptor (GRAMMER), MMTV-LUC reporter in A549 cells. The class given is cell-based. As to conditions: for Emax: A549, A549 cells, Emax relative to the activity obtained with 300 nM dexamethasone, read-out: Transactivation A549 Cells Grammer Emax (%); for EC50: A549 cells, IP = inflection point, read-out: Transactivation A549 Cells Grammer IP.

Structures are written as SMILES.

The term Emax denotes the maximal effect, on the per cent scale that the assay sets.

`CC[C@]12Cc3cnn(-c4cccnc4)c3C=C1CC[C@@]2(O)CCc1cccc(F)c1C#N` [Example 10, 2-{2-[(4aS,5R)-4a-Ethyl-5-hydroxy-1-(pyridin-3-yl)-1,4,4a,5,6,7-hexahydrocyclopenta[f]indazol-5-yl]ethyl}-6-fluorobenzonitrile]: the Emax was found to be 20% and the EC50 came to 116 nM.
With `CC[C@]12Cc3cnn(-c4ccc(F)cc4)c3C=C1CC[C@@]2(O)CC(O)c1cc(C#N)ccn1` (stereo partly drawn) [Example 72, 2-{2-[(4aS,5R)-4a-Ethyl-1-(4-fluorophenyl)-5-hydroxy-1,4,4a,5,6,7-hexahydrocyclopenta[f]indazol-5-yl]-1-hydroxyethyl}pyridine-4-carbonitrile], the Emax is 13% and the EC50 stood at 187 nM.
The like results for `CC[C@]12Cc3cnn(-c4ccc(F)cc4)c3C=C1CC[C@@]2(O)CC(O)c1ccccn1` (stereo partly drawn) [Example 68, (4aS,5R)-4a-Ethyl-1-(4-fluorophenyl)-5-[2-hydroxy-2-(pyridin-2-yl)ethyl]-1,4,4a,5,6,7-hexahydrocyclopenta[f]indazol-5-ol] were, in that order, 21% and 49 nM.
The like results for `N#Cc1cccnc1CC[C@]1(O)CCC2=Cc3c(cnn3-c3ccc(F)cc3)C[C@@]21C1CC1` [Example 31, 2-{2-[(4aR,5R)-4a-Cyclopropyl-1-(4-fluorophenyl)-5-hydroxy-1,4,4a,5,6,7-hexahydrocyclopenta[f]indazol-5-yl]ethyl}pyridine-3-carbonitrile] were, in that order, 24% and 9 nM.
`CC[C@]12Cc3cnn(-c4ccc(F)cc4)c3C=C1CC[C@@]2(O)CCc1ccccc1S(=O)(=O)C(C)C` [Example 40, (4aS,5R)-4a-Ethyl-1-(4-fluorophenyl)-5-{2-[2-(propan-2-ylsulfonyl)phenyl]ethyl}-1,4,4a,5,6,7-hexahydrocyclopenta[f]indazol-5-ol]: the Emax is 36% and the EC50 turned out to be 101 nM.
The like results for `CC[C@]12Cc3cnn(-c4ccc(F)cc4)c3C=C1CC[C@@]2(O)CCc1cccc(OC)c1C(N)=O` [Example 37, 2-{2-[(4aS,5R)-4a-Ethyl-1-(4-fluorophenyl)-5-hydroxy-1,4,4a,5,6,7-hexahydrocyclopenta[f]indazol-5-yl]ethyl}-6-methoxybenzamide] were, in that order, 49% and 10 nM.
For `NC(=O)[C@H](F)c1c(F)cccc1CC[C@]1(O)CCC2=Cc3c(cnn3-c3ccc(F)cc3)C[C@@]21C1CC1` [Example 57, (2R)-2-(2-{2-[(4aR,5R)-4a-Cyclopropyl-1-(4-fluorophenyl)-5-hydroxy-1,4,4a,5,6,7-hexahydrocyclopenta[f]indazol-5-yl]ethyl}-6-fluorophenyl)-2-fluoroethanamide], in that order: 11% and 31 nM.
For the molecule `N#Cc1c(F)cccc1CC[C@]1(O)CCC2=Cc3c(cnn3-c3ccccc3)C[C@@]21C1CC1` [Example 28, 2-{2-[(4aR,5R)-4a-Cyclopropyl-5-hydroxy-1-phenyl-1,4,4a,5,6,7-hexahydrocyclopenta[f]indazol-5-yl]ethyl}-6-fluorobenzonitrile], the Emax was determined as 8% and the EC50 worked out at 32 nM.
Regarding `CC[C@]12Cc3cnn(-c4ccc(F)cc4)c3C=C1CC[C@@]2(O)CC(O)c1ncccc1Cl` (stereo partly drawn) [Example 70, (4aS,5R)-5-[2-(3-Chloropyridin-2-yl)-2-hydroxyethyl]-4a-ethyl-1-(4-fluorophenyl)-1,4,4a,5,6,7-hexahydrocyclopenta[f]indazol-5-ol], the Emax was determined as 31% and the EC50 was 83 nM.
For `NC(=O)Cc1c(F)cccc1CC[C@]1(O)CCC2=Cc3c(cnn3-c3ccc(F)cc3)C[C@@]21C1CC1` [Example 61, 2-(2-{2-[(4aR,5R)-4a-Cyclopropyl-1-(4-fluorophenyl)-5-hydroxy-1,4,4a,5,6,7-hexahydrocyclopenta[f]indazol-5-yl]ethyl}-6-fluorophenyl)acetamide], in that order: 13% and 21 nM.
For `CC[C@]12Cc3cnn(-c4ccc(F)cc4)c3C=C1CC[C@@]2(O)CCc1nccc(C2CC2)c1C(=O)OC` [Example 41, Methyl 4-cyclopropyl-2-{2-[(4aS,5R)-4a-ethyl-1-(4-fluorophenyl)-5-hydroxy-1,4,4a,5,6,7-hexahydrocyclopenta[f]indazol-5-yl]ethyl}pyridine-3-carboxylate], the Emax is 28% and the EC50 is 138 nM.
For `CC[C@]12Cc3cnn(-c4ccc(F)cc4)c3C=C1CC[C@@]2(O)CCc1nccc(OC)c1CC(N)=O` [Example 64, 2-(2-{2-[(4aS,5R)-4a-Ethyl-1-(4-fluorophenyl)-5-hydroxy-1,4,4a,5,6,7-hexahydrocyclopenta[f]indazol-5-yl]ethyl}-4-methoxypyridin-3-yl)acetamide], in that order: 37% and 142 nM.
Consider `O[C@@]1(CCc2cc(C(F)(F)F)ccn2)CCC2=Cc3c(cnn3-c3ccc(F)cc3)C[C@@]21C1CC1` [Example 32, (4aR,5R)-4a-Cyclopropyl-1-(4-fluorophenyl)-5-{2-[4-(trifluoromethyl)pyridin-2-yl]ethyl}-1,4,4a,5,6,7-hexahydrocyclopenta[f]indazol-5-ol], for which the Emax turned out to be 11% and the EC50 worked out at 65 nM.
The like results for `CC[C@]12Cc3cnn(-c4ccc(F)cc4)c3C=C1CC[C@@]2(O)CCc1ncccc1S(=O)(=O)C(C)C` [Example 62, (4aS,5R)-4a-Ethyl-1-(4-fluorophenyl)-5-{2-[3-(propan-2-ylsulfonyl)pyridin-2-yl]ethyl}-1,4,4a,5,6,7-hexahydrocyclopenta[f]indazol-5-ol] were, in that order, 43% and 35 nM.
The like results for `NC(=O)Cc1ccccc1CC[C@]1(O)CCC2=Cc3c(cnn3-c3ccc(F)cc3)C[C@@]21C1CC1` [Example 56, 2-(2-{2-[(4aR,5S)-4a-Cyclopropyl-1-(4-fluorophenyl)-5-hydroxy-1,4,4a,5,6,7-hexahydrocyclopenta[f]indazol-5-yl]ethyl}phenyl)acetamide] were, in that order, 9% and 14 nM.
For `NC(=O)c1ccccc1CC[C@]1(O)CCC2=Cc3c(cnn3-c3ccc(F)cc3)C[C@@]21C1CC1` [Example 23, 2-{2-[(4aR,5R)-4a-Cyclopropyl-1-(4-fluorophenyl)-5-hydroxy-1,4,4a,5,6,7-hexahydrocyclopenta[f]indazol-5-yl]ethyl}benzamide], in that order: 21% and 37 nM.
On to `CC[C@]12Cc3cnn(-c4ccccc4)c3C=C1CC[C@@]2(O)CCc1ccc(F)cc1C(N)=O` [Example 6], for which the Emax amounted to 26% and the EC50 came out at 178 nM.
As to `NC(=O)c1c(C(F)(F)F)ccnc1CC[C@]1(O)CCC2=Cc3c(cnn3-c3ccc(F)cc3)C[C@@]21C1CC1` [Example 55, 2-{2-[(4aR,5R)-4a-Cyclopropyl-1-(4-fluorophenyl)-5-hydroxy-1,4,4a,5,6,7-hexahydrocyclopenta[f]indaozol-5-yl]ethyl}-4-(trifluoromethyl)pyridine-3-carboxamide], the maximal effect (Emax) is 38% and the EC50 is 7 nM.
The like results for `CC[C@]12Cc3cnn(-c4cccnc4)c3C=C1CC[C@@]2(O)CCc1ccc(F)cc1C#N` [Example 9, 2-{2-[(4aS,5R)-4a-Ethyl-5-hydroxy-1-(pyridin-3-yl)-1,4,4a,5,6,7-hexahydrocyclopenta[f]indazol-5-yl]ethyl}-5-fluorobenzonitrile] were, in that order, 15% and 76 nM.
Take `CC[C@]12Cc3cnn(-c4cccnc4)c3C=C1CC[C@@]2(O)CCc1ccccc1C(N)=O` [Example 13, 2-{2-[(4aS,5R)-4a-Ethyl-5-hydroxy-1-(pyridin-3-yl)-1,4,4a,5,6,7-hexahydrocyclopenta[f]indazol-5-yl]ethyl}benzamide]: the maximum response (Emax) is 34% and the EC50 was 224 nM.
The like results for `CCS(=O)(=O)c1ccccc1CC[C@]1(O)CCC2=Cc3c(cnn3-c3ccc(F)cc3)C[C@@]21C1CC1` [Example 59, (4aR,5R)-4a-Cyclopropyl-5-{2-[2-(ethylsulfonyl)phenyl]ethyl}-1-(4-fluorophenyl)-1,4,4a,5,6,7-hexahydrocyclopenta[f]indazol-5-ol] were, in that order, 7% and 35 nM.
For `CC[C@]12Cc3cnn(-c4ccccc4)c3C=C1CC[C@@]2(O)CC(O)c1ccccn1` (single isomer, unassigned) [Example 67a], in that order: 20% and 284 nM.
Consider `CC[C@]12Cc3cnn(-c4ccc(F)cc4)c3C=C1CC[C@@]2(O)CCc1ccccn1` [Example 16, (4aS,5R)-4a-Ethyl-1-(4-fluorophenyl)-5-[2-(pyridin-2-yl)ethyl]-1,4,4a,5,6,7-hexahydrocyclopenta[f]indazol-5-ol], for which the Emax stood at 31% and the EC50 was determined as 80 nM.

(Values after US20120214847A1, “2-[1-PHENYL-5-HYDROXY-4a-SUBSTITUTED-HEXAHYDROCYCLOPENTA[F]INDAZOL-5-YL]ETHYL PHENYL DERIVATIVES AS GLUCOCORTICOID RECEPTOR LIGANDS” (Merck Sharp & Dohme Corp., priority 2009, published 2012).)
